Key:
[1] = test system: 3T3-L1 cells; test: Adiponectin concentration in culture supernatant of 3T3-L1 cells (LANCE method); assay type: cell-based, mouse; details: for Concentration of adiponectin in the case of adding one kind of amino acids to Zero medium: 3T3-L1 culture supernatant after 72 hour incubation, amino acid at fourfold of that in Full medium, average values, N=2, Zero medium 61; for concentration of adiponectin in the culture supernatant in mediums to which the amino acid was added: amino acid added to Zero medium at fourfold of Full medium; for concentration of adiponectin in the culture supernatant in mediums to which the amino acid was added / concentration of adiponectin in mediums without the amino acid: 72 hour incubation; for concentration of adiponectin in mediums without the amino acid: amino acid removed from Full medium; for production of adiponectin as compared with Zero medium (FIG. 1): 3T3-L1 cells, 72 hours, amino acid concentration changed in Zero medium, mixture equimolar
Protocol: 3T3-L1 cells were suspended in D-MEM medium containing 10% fetal bovine serum to become 1.5×10^5 cells/mL and seeded. After the incubation in the CO2 incubator at 37° C. for 72 hours, the medium was removed by suction. Then, the medium was exchanged for D-MEM medium containing 10 ug/mL of insulin, 1 uM of dexamethazone, 0.5 mM of IBMX (3-isobutyl-1-methylxanthine) and 10% fetal bovine serum, and further incubated in the CO2 incubator at 37° C. for 48 hours. After removing the medium, it was further exchanged for the medium wherein the concentrations of amino acids were changed, with addition of 10% dialyzed fetal bovine serum (F-0392, by SIGMA), and further incubated in CO2 incubator at 37° C. for 72 hours.
D-MEM medium contains, as amino acids, 30 mg/L of glycine (Gly); 35.6 mg/L of alanine (Ala); 42 mg/L of serine (Ser); 95 mg/L of threonine (Thr); 63 mg/L of cysteine (Cys)/2HCl; 30 mg/L of methionine (Met); 1168 mg/L of glutamine (Gln); 52.8 mg/L of asparagine (Asn); 58.8 mg/L of glutaminic acid (Glu); 106.4 mg/L of asparaginic acid (Asp); 94 mg/L of valine (Val); 105 mg/L of leucine (Leu); 105 mg/L of isoleucine (Ile); 66 mg/L of phenylalanine (Phe); 208 mg/L of tylosin (Tyr)/2Na/2H2O; 16 mg/L of triptophan (Trp); 146 mg/L of lysine (Lys)/HCl; 84 mg/L of arginine (Arg); 42 mg/L of histidine (His)/HCl/H2O; and 46 mg/L of proline (Pro). Regarding the expression of the mediums, for example, Δ Met indicates the medium having the same compositions of vitamins and salts as those of D-MEM medium and said medium wherein one kind of amino acids, methionine (Met), is removed. Full medium indicates the one containing all amino acids, and Zero medium indicates the one removing all amino acids.
Eu (Europium) chelate labeling of anti-mouse adiponectin antibody (AF1119, by R&D Systems) was conducted by using 100 ug of LANCE Eu-W1024-ITC chelate (AD0013 by Perkin Elmer), which is a Eu chelate labeling reagent, to 200 μg of the antibody in accordance with the method described in the manual. Biotin labeling of anti-mouse adiponectin antibody (AF1119, by R&D Systems) was conducted by using 26.8 ug of NHS-Biotin (1418165, Biotin Labeling Kit, by Boehringer Mannheim), which is a biotin labeling reagent, to 100 μg of the antibody in accordance with the method described in the manual.
The amount of adiponectin in the cell culture supernatant was measured as follows. The culture supernatant was diluted tenfold with TBS (Tris-buffered saline; 20 mM Tris-HCl pH7.4, 0.15M NaCl) containing 0.1% bovine serum albumin (BSA), and 10 μL thereof was mixed with 300 ng/mL of the Eu chelate labeled antibody, 300 ng/mL of the biotin labeled antibody and 10 μL of a solution (TBS containing 0.1% BSA) containing 2.5 μg/mL of Streptavidin-APC (AD0201, by Perkin Elmer) on the 384-well plate. After preserving the mixture at room temperature for 2 days, LANCE count was measured by using ARVO-SX multilabel counter (by Perkin Elmer) in accordance with the protocol of the LANCE method. At the same time, the mouse adiponectin preparation (8060-K, by LINCO) was also measured, and the concentration of adiponectin in the culture supernatant was calculated from the calibration curve of the preparation.

[2] = test system: ob/ob mice; test: Non-fasting blood glucose of ob/ob mice given experimental diets; assay type: in vivo, mouse; details: experimental diet containing 4%, 17 days
Excerpt: (§1) Male ob/ob mice of 5 week old (purchased from Charles River Laboratories Japan, Inc.) were preliminarily fed by a basic diet containing 25% by weight ratio of fats. Then, they were divided into groups so that their body weights and non-fasting blood glucose were the same between the groups. The used basic diet contained 17% by weight of casein and 48% by weight of starch in addition to 25% of lipids. Then, an experimental diet (containing 25% of fats) containing 4% of BCAA (its composition is a mixture of Leu, Ile and Val; their weight ratio is […]=1:1:1), Leu or Ile was provided to them. The control group was given an experimental diet wherein casein was increased by 4% from the basic diet instead of the amino acids (Control Group). As for the composition of each experimental diet, the starch content was adjusted so that each calorie per unit weight became the same. On the 17th day of provision of the experimental diet, their blood was collected and their blood glucose was measured to determine the adiponectin concentration in plasma. […] After extracting RNA, adiponectin mRNA was determined. The blood glucose of a mouse was measured by collecting 6 μL of its blood from the caudal vein and using a Fuji […] system (produced by FUJIFILM Medical Co., Ltd.). The adiponectin concentration in plasma was measured by the following method.

[3] = test system: adiponectin mRNA; test: Adiponectin mRNA in subcutaneous fats of ob/ob mice given experimental diets; assay type: in vivo, mouse; details: 23rd day of 4% diet, amended with β-actin mRNA
Excerpt: Male ob/ob mice of 5 week old (purchased from Charles River Laboratories Japan, Inc.) were preliminarily fed by a basic diet containing 25% by weight ratio of fats. Then, they were divided into groups so that their body weights and non-fasting blood glucose were the same between the groups. The used basic diet contained 17% by weight of casein and 48% by weight of starch in addition to 25% of lipids. Then, an experimental diet (containing 25% of fats) containing 4% of BCAA (its composition is a mixture of Leu, Ile and Val; their weight ratio is Leu:Ile:Val=1:1:1), Leu or Ile was provided to them. The control group was given an experimental diet wherein casein was increased by 4% from the basic diet instead of the amino acids (Control Group). As for the composition of each experimental diet, the starch content was adjusted so that each calorie per unit weight became the same. On the 17th day of provision of the experimental diet, their blood was collected and their blood glucose was measured to determine the adiponectin concentration in plasma. Further, on the 23rd day after starting the provision of the experimental food, autopsy was conducted, and subcutaneous fats were collected to freeze for preservation. After extracting RNA, adiponectin mRNA was determined. […]

[4] = test system: ob/ob mice; test: Adiponectin concentration in plasma of ob/ob mice given experimental diets; assay type: in vivo, mouse; details: experimental diet containing 4%, 17 days
Excerpt: as §1, with “As for the composition of each experimental diet, the starch content was adjusted so that each calorie per unit weight became the same.” left out, “method. […] After leaving the mixture at room temperature for 2 days, LANCE count was measured by using ARVO-SX multilabel counter (by Perkin Elmer) in accordance with the protocol of the LANCE method. […]” for “method.”

C[C@H](N)C(=O)O [Ala, alanine]
Concentration of adiponectin in the case of adding one kind of amino acids to Zero medium [1]: 98 ng/mL
concentration of adiponectin in the culture supernatant in mediums to which the amino acid was added [1]: increased

N[C@@H](CS)C(=O)O [Cys, cysteine]
Concentration of adiponectin in the case of adding one kind of amino acids to Zero medium [1]: 83 ng/mL
concentration of adiponectin in the culture supernatant in mediums to which the amino acid was added [1]: increased
concentration of adiponectin in mediums without the amino acid [1]: significantly decreased

NC(=O)CC[C@H](N)C(=O)O [Gln, glutamine]
Concentration of adiponectin in the case of adding one kind of amino acids to Zero medium [1]: 21 ng/mL

CC[C@H](C)[C@H](N)C(=O)O [Ile, isoleucine]
production of adiponectin as compared with Zero medium (FIG. 1) [1]: increase of the production of adiponectin was seen
Concentration of adiponectin in the case of adding one kind of amino acids to Zero medium [1]: 119 ng/mL
concentration of adiponectin in the culture supernatant in mediums to which the amino acid was added [1]: increased
non-fasting blood glucose as compared with before the start of providing the diet (FIG. 2) [2]: significantly decreased
amount of adiponectin mRNA in adipose tissues (FIG. 5) [3]: tended to increase
adiponectin concentration in plasma as compared with before the start of providing the diet (FIG. 3) [4]: tended to increase

CC(C)C[C@H](N)C(=O)O [Leu, leucine]
production of adiponectin as compared with Zero medium (FIG. 1) [1]: increase of the production of adiponectin was seen
non-fasting blood glucose as compared with before the start of providing the diet (FIG. 2) [2]: significantly decreased
amount of adiponectin mRNA in adipose tissues (FIG. 5) [3]: tended to increase
adiponectin concentration in plasma as compared with before the start of providing the diet (FIG. 3) [4]: tended to increase

CSCC[C@H](N)C(=O)O [Met, methionine]
Concentration of adiponectin in the case of adding one kind of amino acids to Zero medium [1]: 66 ng/mL
concentration of adiponectin in mediums without the amino acid [1]: significantly decreased

CC(C)[C@H](N)C(=O)O [Val, valine]
production of adiponectin as compared with Zero medium (FIG. 1) [1]: increase of the production of adiponectin was seen
Concentration of adiponectin in the case of adding one kind of amino acids to Zero medium [1]: 83 ng/mL
concentration of adiponectin in the culture supernatant in mediums to which the amino acid was added [1]: increased
concentration of adiponectin in mediums without the amino acid [1]: significantly decreased
